This note sets out measurements from PubChem BioAssay AID488814 (NMMLSC, 2010).

Structures are written as SMILES.

One may read the EC50 as the concentration that produces a half-maximal response.

In the test the test system is S. cerevisiae RPL19A-GFP strain, flow cytometry GFP, 3 h. As to the kind of experiment: RPL19A-GFP expression changes in yeast, dose response, cell-based, cherry pick 3, SAR, flow cytometry GFP, multiplex (AID 488814). A general note: A flow cytometer gives signals particle by particle.
Consider `Cc1ccc(NN2C(=O)C=C(c3ccccc3)C2=O)cc1`, for which the EC50 is 0.876 µM. As to `Cc1ccc2c(Cl)cc(Cl)c(O)c2n1`, the EC50 is 14.7 µM.

Consider `CC1=NNC(=O)/C1=C\c1cn(-c2ccccc2)nc1-c1ccc(F)cc1`, for which the EC50 is 15.3 µM.
